Patent publication US7223400B2, “Method to prepare compositions comprising yeast treated with electromagnetic energy” (Ultra Biotech Limited, priority 2003, dated 2007)

Tests used:
[1] = system: stomach cancer cells (cell line from a DMH-induced Wistar rat stomach cancer); assay: Wistar rat model of transplanted stomach cancer, growth of the tumor; assay type: in vivo, Wistar rats; details: 22nd day from tumor inoculation; 21 consecutive days; AY/NY 0.8 ml oral once per day, ADM 10^5 units per kg i.v. per day
Excerpt: The growth of the tumor in the rats was studied.
Numerous animal studies have reported the use of Wistar rats in the study of treating stomach cancer. 1,2-dimethylhydrazine (DMH) is a well-known effective trigger of stomach cancer in rats. Accordingly, this experiment used DMH in designing Wistar rat model of human stomach cancer. Detailed description of the use of 1,2-dimethylhydrazine to induce stomach cancer can be found in Watanabe H. et al., 1999, Jpn J Cancer Res. 90(11):1207–11, which is incorporated herein by reference in its entirety.
The animals used in the experiments were Wistar rats (obtainable from the Chinese Academy of Military Medical Sciences, Beijing, China). The stomach cancer cell line (obtainable from the First Military Medical University of China, Guangzhou, China) was generated in 1991 from a Wistar rat stomach cancer which was induced by subcutaneous injection of DMH. The rats were injected subcutaneously with 2.5×10^6 stomach cancer cells per animal.
In group AY, the rats received 0.8 ml of the biological composition once per day. In group NY, the rats received 0.8 ml of the untreated yeast cells once per day. In group ADM, the rats were injected intravenously with 10^5 units of doxorubicin (adriamycin, ADM) per kg body weight per day. In group CK1, the rats received 0.8 ml of physiological saline once per day. […]

[2] = system: stomach cancer cells (cell line from a DMH-induced Wistar rat stomach cancer); assay: Wistar rat model of transplanted stomach cancer, survival time; assay type: in vivo, Wistar rats; details: for Number of live animals remaining in the groups after 21 days of treatment: 30 rats per group
Experimental: In group 2ADM, the rats were injected intravenously with 1.5×10^5 units of doxorubicin (adriamycin, ADM) per kg body weight per day.

[3] = system: stomach cancer cell line S784; assay: TA2 mouse model of stomach cancer, growth of tumors; assay type: in vivo, TA2 mice; details: 31st day from tumor inoculation; 30 consecutive days; AY/NY 0.3 ml oral once per day, ADM 10^5 units per kg i.v. per day
Excerpt: The growth of tumors in the mice was studied.
Numerous animal studies have reported the use of murine models in the study of treating stomach cancer. Methylcholanthrene (MC) is a well-known effective trigger of stomach cancer in mice. Accordingly, this experiment used MC in designing TA2 mouse model of human stomach cancer. Detailed description of the use of methylcholanthrene to induce stomach cancer can be found in Wang X. H. et al., 1984, Chin Med J (Engl) 97(3):215–22, which is incorporated herein by reference in its entirety.
The animals used for the experiments were TA2 mice, 6 to 8 weeks old (obtainable from the Second Military Medical University, Shanghai, China). Both male and females with an average weight of about 18 to 20 gram were used. The stomach cancer cell line S784 (obtainable from MC-treated TA2 mouse provided by the Tianjian Medical University, China) in a suspension containing about 1.2×10^7 viable tumor cells (about 0.2 ml cell culture) was injected subcutaneously into the animals.
In group ADM, the mice were injected intravenously with 10^5 units of doxorubicin (adriamycin, ADM) per kg body weight per day.

[4] = system: stomach cancer cell line S784; assay: Mouse model of stomach cancer, survival time; assay type: in vivo, TA2 mice; details: for Number of live animals remaining in the groups after 30 days of treatment: 30 mice per group
Experimental: In group 2ADM, the mice were injected intravenously with 1.5×10^5 units of doxorubicin (adriamycin, ADM) per kg body weight per day.

[5] = 1 month after cessation of treatment
[6] = 2 months after cessation of treatment
[7] = 3 months after cessation of treatment
[8] = 4 months after cessation of treatment
[9] = 5 months after cessation of treatment
[10] = 6 months after cessation of treatment
[11] = rats that survived, observed over 6 months, 1.2 ml oral or ADM 1.5×10^5 units per kg i.v. per day, 21 days
[12] = mice that survived, observed over 6 months, 0.5 ml oral or ADM 1.5×10^5 units per kg i.v. per day

## COc1cccc2c1C(=O)c1c(O)c3c(c(O)c1C2=O)C[C@@](O)(C(=O)CO)C[C@@H]3O[C@H]1C[C@H](N)[C@H](O)[C@H](C)O1 [ADM, doxorubicin]
[1]
  mean weight of rats and standard deviation: 181.8 ± 12.8 g
  mean weight of tumor nodules and standard deviation: 446.4 ± 13.6 mg
[2]; 0 month after cessation of treatment, 1.2 ml oral or ADM 1.5×10^5 units per kg i.v. per day
  Number of live animals remaining in the groups after 21 days of treatment: 30
[2]; [5]
  Number of live animals remaining in the groups after 21 days of treatment: 30
[2]; 1.2 ml oral per day or ADM 1.5×10^5 units per kg per day, from injection of tumor cells
  survival of rats bearing stomach cancer cells: all died after four months
[2]; [6]
  Number of live animals remaining in the groups after 21 days of treatment: 30
[2]; [7]
  Number of live animals remaining in the groups after 21 days of treatment: 22
[2]; [8]
  Number of live animals remaining in the groups after 21 days of treatment: 17
[2]; [9]
  Number of live animals remaining in the groups after 21 days of treatment: 13
[2]; [10]
  Number of live animals remaining in the groups after 21 days of treatment: 0
[2]; [11]
  mean weight of rats and standard deviation: all animals dead
  mean weight of tumor nodules and standard deviation: all animals dead
[3]
  mean weight of mice and standard deviation: 19.8 ± 0.8 g
  mean weight of stomach and standard deviation: 621 ± 17 mg
  mean weight of tumor nodules and standard deviation: 346 ± 36 mg
[4]; 0 month after cessation of treatment, 0.5 ml oral or ADM 1.5×10^5 units per kg i.v. per day
  Number of live animals remaining in the groups after 30 days of treatment: 30
[4]; 0.5 ml oral per day or ADM 1.5×10^5 units per kg per day, from injection of tumor cells
  survival of mice bearing stomach cancer cells: all died after four months
[4]; [5]
  Number of live animals remaining in the groups after 30 days of treatment: 30
[4]; [6]
  Number of live animals remaining in the groups after 30 days of treatment: 27
[4]; [7]
  Number of live animals remaining in the groups after 30 days of treatment: 16
[4]; [8]
  Number of live animals remaining in the groups after 30 days of treatment: 7
[4]; [9]
  Number of live animals remaining in the groups after 30 days of treatment: 0
[4]; [10]
  Number of live animals remaining in the groups after 30 days of treatment: 0
[4]; [12]
  mean weight of mice and standard deviation: all animals dead
  mean weight of stomach and standard deviation: all animals dead
  mean weight of tumor nodules and standard deviation: all animals dead
